Reference: patent US8071531B2, “Flavor and fragrance composition” (Takasgo International Corporation, priority 2006, dated 2011)

Experiment: Oral sensory evaluation of an aqueous solution by seven expert panelists
Assay type: in vivo
Procedure: Oral evaluation of an aqueous solution of (1R,2R,4R)-1-(2-hydroxy-4-methylcyclohexyl)ethanone obtained in Synthesis Example 1 was carried out by seven expert panelists.

SMILES: CC(=O)[C@@H]1CC[C@@H](C)C[C@H]1O [(1R,2R,4R)-1-(2-hydroxy-4-methylcyclohexyl)ethanone]
- appearance of refreshing feeling and taste (aqueous solution, oral evaluation): relatively rapid with clear refreshing feeling without unpleasant taste
- Cool and refreshing feeling of the aqueous solution, equivalent concentration of menthol (at a concentration of 50 ppm in aqueous solution): 10 ppm
